Test results: publication PMC5431200, “Identification of Streptococcus cristatus peptides that repress expression of virulence genes in Porphyromonas gingivalis” (Scientific Reports, 2017)

Key:
fimA = fimA expression in P. gingivalis with ArcA peptides, real-time qRT-PCR; format: cell-based, Porphyromonas gingivalis 33277; conditions: peptide 16 µM; P. gingivalis 33277 grown TSB; real-time PCR mRNA level relative to absence of peptide = 1 unit; means and SD of three independent experiments
Method: (§1) The IC50 for each gene was established using a Microsoft Excel program with add-in for curve fitting.
(§2) P. gingivalis were homogenized in Trizol Reagent (Invitrogen, Carlsbad, CA) and RNA was purified using an RNeasy mini spin column (Qiagen, Valencia, CA). RNA samples were digested on-column with RNase-free DNase, and total RNA was tested using an Agilent 2100 Bioanalyzer to ensure the quality of the samples. Amplification reactions consisted of a reverse transcription using a Bio-Rad iScript Reverse Transcription Supermix on a TC-3000 thermal cycler (Techne, Staffordshire, ST15 OSA, UK) and a real-time qRT-PCR analysis using a QuantiTect SYBR Green RT-PCR Kit (Qiagen) on an iCycler MyiQ^TM Real-Time PCR detection system (Bio-Rad Laboratories, Inc, Hercules, CA) according to the manufacturer’s instructions. P. gingivalis 16 S rRNA gene was used as a normalizing gene. […] The expression levels of the investigated genes for the test sample were determined relative to the untreated calibrator sample by using the comparative cycle threshold (ΔC T) method. ΔC T was calculated by subtracting the average C T value of the test sample from the average C T value of the calibrator sample, and the value used to calculate the ratio between the two by assuming 100% amplification efficiency.
(§3) Peptides were resuspended in nuclease/proteinase-free PBS, aliquoted, and stored at −20 °C. Inhibitory activity of peptides were determined as described[16] with slight modification. Peptides were mixed with 5 × 10^5 cells of P. gingivalis, spotted onto a TSB blood agar plate, and cultured for 60 h anaerobically. The expression levels of fimbrial and gingipain mRNA or proteins were measured using qRT-PCR or western blot analyses.

kgp = conditions: peptide 16 µM; P. gingivalis 33277 grown TSB; real-time PCR mRNA level relative to absence of peptide = 1 unit; means and SD of three independent experiments
Method: as §1, §2, §3

mfa1 = conditions: peptide 16 µM; P. gingivalis 33277 grown TSB; real-time PCR mRNA level relative to absence of peptide = 1 unit; means and SD of three independent experiments
Method: as §1, §2, §3

rgpA = conditions: peptide 16 µM; P. gingivalis 33277 grown TSB; real-time PCR mRNA level relative to absence of peptide = 1 unit; means and SD of three independent experiments
Method: as §1, §2, §3

rgpA/B = rgpA/B expression (catalytic regions of rgpA/B) in P. gingivalis with ArcA peptides, real-time qRT-PCR; format: cell-based, Porphyromonas gingivalis 33277; conditions: peptide 16 µM; P. gingivalis 33277 grown TSB; real-time PCR mRNA level relative to absence of peptide = 1 unit; means and SD of three independent experiments
Method: as §1, §2, §3

pgn0128 = pgn0128 (immunoreactive 53 kDa antigen) expression in P. gingivalis with ArcA peptides, real-time qRT-PCR; format: cell-based, Porphyromonas gingivalis 33277; conditions: peptide 16 µM; P. gingivalis 33277 grown TSB; real-time PCR mRNA level relative to absence of peptide = 1 unit; means and SD of three independent experiments
Method: as §2, §3

[1] = test system: fimA, mfa1, kgp, rgpA/B, rgpA; assay: Virulence gene expression in P. gingivalis with ArcA peptides, stated for the gene set, qRT-PCR; format: cell-based, Porphyromonas gingivalis 33277; conditions: peptide 16 µM (Table 1); at a lower efficiency than peptide4
Method: as §2, §3

Row | Substance | Relative expression level fimA (fimA) | Relative expression level kgp (kgp) | Relative expression level mfa1 (mfa1) | Relative expression level rgpA (rgpA) | Relative expression level rgpA/B (rgpA/B) | Relative expression level pgn0128 (pgn0128) | Inhibitory activity on virulence gene expression (in words) [1]
1 | E389LVRGRGGPRCMSMPF [Peptide P5] | 0.97 ± 0.05 | 0.96 ± 0.12 | 0.83 ± 0.04 | 0.73 ± 0.06 | 0.72 ± 0.05 | 0.91 ± 0.06 | some inhibitory activity
2 | I97RGRETKK [Peptide P1] | 0.88 ± 0.08 | 1.06 ± 0.12 | 0.85 ± 0.05 | 0.86 ± 0.07 | 0.89 ± 0.05 | 0.96 ± 0.06 | some inhibitory activity
3 | V208YNREEDTRIEGGDEL [Peptide P3] | 0.87 ± 0.10 | 0.99 ± 0.12 | 0.82 ± 0.07 | 0.84 ± 0.06 | 0.98 ± 0.06 | 0.91 ± 0.07 | some inhibitory activity
